# Measured values published in patent US5459147A, “Substituted benzimidazolyl derivatives and pharmaceutical compositions containing these compounds” (Dr. Karl Thomae GmbH, priority 1992, dated 1995).
# Molecular target: T1, Angiotensin II-receptor (Rattus norvegicus, UniProt P25095)
# T1 construct: The tissue (rats lung) is homogenised in Tris-buffer; from tissue; host or cells: rat lung homogenate (washed 20,000×g pellet)
# T1 sequence (P25095 1-359): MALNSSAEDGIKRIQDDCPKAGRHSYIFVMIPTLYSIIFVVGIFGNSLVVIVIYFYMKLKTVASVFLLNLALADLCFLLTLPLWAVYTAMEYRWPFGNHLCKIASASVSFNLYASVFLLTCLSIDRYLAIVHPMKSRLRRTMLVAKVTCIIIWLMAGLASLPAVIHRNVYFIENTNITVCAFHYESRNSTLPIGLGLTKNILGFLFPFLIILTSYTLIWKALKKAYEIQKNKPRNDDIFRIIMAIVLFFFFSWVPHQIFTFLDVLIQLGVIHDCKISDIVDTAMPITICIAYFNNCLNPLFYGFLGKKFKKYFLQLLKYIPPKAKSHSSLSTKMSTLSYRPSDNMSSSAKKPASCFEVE
# Assay: Angiotensin II-receptor bonding
# Type: binding
# Conditions: rats lung homogenate; 50 pM [125I]-angiotensin II; 60 minutes at 37° C., pH 7.40
# Method: Description of method: Angiotensin II-receptor bonding
# The tissue (rats lung) is homogenised in Tris-buffer (50 mMol Tris, 150 mMol NaCl, 5 mMol EDTA, pH 7.40) and centrifuged twice for 20 minutes at 20,000×g. The finished pellets are resuspended in incubating buffer (50 mMol Tris, 5 mMol MgCl2, 0.2% BSA, pH 7.40) 1:75, based on the moist weight of the tissue. Each 0.1 ml of homogenate is incubated for 60 minutes at 37° C. with 50 pM [^125 I]-angiotensin II (NEN, Dreieich, FRG) with increasing concentrations of the test substance in a total volume of 0.25 ml. Incubation is ended by rapid filtration through glass fiber filter mats. The filters are each washed with 4 ml of ice cold buffer (25 mMol Tris, 2.5 mMol MgCl2, 0.1% BSA, pH 7.40). The bound radioactivity is measured using a gamma-counter. The corresponding IC50 value is obtained from the dose-activity curve.
row,IC50 [µM],SMILES
1,0.12,"CCc1nc2c(C)cc(C)nc2n1Cc1ccc2c(c1)nc(-c1ccccc1)n2CC(=O)O [Substance A, 1-hydroxycarbonylmethyl-2-phenyl-5-[(2-ethyl-4,6-dimethyl-imidazo[4,5-b]pyridin-1-yl)-methyl]-benzimidazole-trihydrate]"
2,0.023,"CCCc1nc2c(C)cc(-c3nc4ccccc4n3C)cc2n1Cc1ccc2nc(-c3ccccc3)n(CC(=O)O)c2c1 [Substance B, 1-hydroxycarbonylmethyl-2-phenyl-6-[(2-n-propyl-4-methyl-6-(1-methyl-benzimidazol-2-yl)-benzimidazol-1-yl)-methyl]-benzimidazole]"
3,0.0023,"CCCc1nc2c(C)cc(-c3nc4ccccc4n3C)cc2n1Cc1ccc2c(c1)nc(-c1ccccc1)n2Cc1nnn[nH]1 [Substance C, 1-[(1H-tetrazol-5-yl)-methyl]-2-phenyl-5-[(2-n-propyl-4-methyl-6-(1-methyl-benzimidazol-2-yl)-benzimidazol-1-yl)-methyl]-benzimidazole]"
